One experiment has as its system PAO1. In words: microbe, parasite or virus in culture. It counts as cell-based, Pseudomonas aeruginosa. The source says:
Supplement DataSheet_1.docx, table 1: Table S1 Minimum inhibitory concentrations of various drugs against PAO1 | column: MIC(μg/mL)

The test system of experiment [1] is PAO1 planktonic and dispersed bacteria. In words: Inducible resistance, multi-step induction over 25 generations. The experiment is classed as cell-based, Pseudomonas aeruginosa. Particulars: for increase in the MIC value after induction: 25 continuous generations, induction with the agent alone at 1/4 MIC, consistent across planktonic and dispersed bacteria; for MIC values after co-induction with CRAMP-34: antibiotic at 1/4 MIC combined with CRAMP-34 at 1/4 MIC, 25 generations, vs antibiotic alone, planktonic and dispersed bacteria. The protocol: Bacterial resistance was induced in vitro using a modified multi-step method ([Zhu et al., 2017]). The method of obtaining dispersed bacteria was described previously ([Zhang et al., 2022]). Planktonic bacteria and biofilm dispersion bacteria were induced at the initial 1/4 MIC concentration of antimicrobial agents every 24 hours. The latest MIC was measured every 2 generations and the drug concentration was changed according to the latest results.

The next experiment concerns PAO1 preformed biofilms. In words: Effect of exogenous glutamate and succinate on PAO1 preformed biofilm biomass. The conditions noted are these: preformed 96-h-old biofilms, different concentrations, 37°C, 24 h; certain dose-dependent effect (one way ANOVA).
Another experiment has as its system surface-attached biofilm. The conditions noted are these: exogenous addition of succinate and glutamate; ref Sauer et al., 2004; cited from earlier work.
Where [2] appears, read: Pseudomonas aeruginosa, read-out: MIC.

We go through 17 compounds from paper PMC10757720, “Impact of CRAMP-34 on Pseudomonas aeruginosa biofilms and extracellular metabolites” (Frontiers in Cellular and Infection Microbiology, 2023).

≈ marks a conversion by molar mass, not a printed value. Where two headings read alike, the source gives them in different places. Positions of bridges follow the written chain, without caps; N, C: chain ends. Non-standard residues stand in square brackets, D forms with d. Residues, ends and D or L forms follow the SMILES beside them. No end group written: not given here. *: point of attachment. X1 = CC[C@H](C)CCCCC(=O)*; Dab = NCC[C@H](N)C(=O)O

As for `CC(C)(O/N=C(\C(=O)N[C@@H]1C(=O)N2C(C(=O)[O-])=C(C[n+]3ccccc3)CS[C@H]12)c1csc(N)n1)C(=O)O` [Ceftazidime], in the experiment with PAO1 (setting [2]), the MIC is 1 µg/mL (≈ 1.83 µM).

Turning to “GLLRKGGEKIGEKLKKIGQKIKNFFQKLVPQPEQ [CRAMP-34]”, the MIC against PAO1 is 31.25 µg/mL.

As to `CCN1CCN(c2cc3c(cc2F)c(=O)c(C(=O)O)cn3C2CC2)CC1` [Enrofloxacin], the MIC with PAO1 (setting [2]) was 0.5 µg/mL (≈ 1.39 µM).

For the compound `CNC(C)C1CCC(N)C(OC2C(N)CC(N)C(OC3OCC(C)(O)C(NC)C3O)C2O)O1` (centres unmarked) [Gentamicin], the MIC with PAO1 (setting [2]) was 0.5 µg/mL (≈ 1.05 µM).

`CC[C@H]1OC(=O)[C@H](C)[C@@H](O[C@H]2C[C@@](C)(OC)[C@@H](O)[C@H](C)O2)[C@H](C)[C@@H](O[C@@H]2O[C@H](C)C[C@H](N(C)C)[C@H]2O)[C@](C)(O)C[C@@H](C)/C(=N\OCOCCOC)[C@H](C)[C@@H](O)[C@]1(C)O` [Roxithromycin]: the MIC with PAO1 (setting [2]) is 512 µg/mL (≈ 612 µM).

Turning to `O=C(O)c1cn(C2CC2)c2cc(N3CCNCC3)c(F)cc2c1=O` [Ciprofloxacin], in experiment [1], the “increase in the MIC value after induction” value was “sixty-fourfold” and the “MIC values after co-induction with CRAMP-34” value is listed as “significantly reduced”. The MIC in the experiment with PAO1 (setting [2]) was found to be 0.031 µg/mL (≈ 0.0936 µM).

For `NCC[C@H](O)C(=O)N[C@@H]1C[C@H](N)[C@@H](O[C@H]2O[C@H](CN)[C@@H](O)[C@H](O)[C@H]2O)[C@H](O)[C@H]1O[C@H]1O[C@H](CO)[C@@H](O)[C@H](N)[C@H]1O` [Amikacin], the MIC in the experiment on PAO1 (setting [2]) turned out to be 0.25 µg/mL (≈ 0.427 µM).

`CN[C@H](CC(C)C)C(=O)N[C@H]1C(=O)N[C@@H](CC(N)=O)C(=O)N[C@H]2C(=O)N[C@H]3C(=O)N[C@H](C(=O)N[C@H](C(=O)O)c4cc(O)cc(O)c4-c4cc3ccc4O)[C@H](O)c3ccc(c(Cl)c3)Oc3cc2cc(c3O[C@@H]2O[C@H](CO)[C@@H](O)[C@H](O)[C@H]2O[C@H]2C[C@](C)(N)[C@H](O)[C@H](C)O2)Oc2ccc(cc2Cl)[C@H]1O` [Vancomycin] returned an MIC with PAO1 (Pseudomonas aeruginosa) of 1020 µg/mL (≈ 707 µM).

For `CC[C@H]1OC(=O)[C@H](C)[C@@H](O[C@H]2C[C@@](C)(OC)[C@@H](O)[C@H](C)O2)[C@H](C)[C@@H](O[C@@H]2O[C@H](C)C[C@H](N(C)C)[C@H]2O)[C@](C)(O)C[C@@H](C)CN(C)[C@H](C)[C@@H](O)[C@]1(C)O` [Azithromycin], the MIC with PAO1 (setting [2]) is 16 µg/mL (≈ 21.4 µM).

As to `CCN1CCN(C(=O)N[C@@H](C(=O)N[C@@H]2C(=O)N3[C@@H]2SC(C)(C)[C@@H]3C(=O)O)c2ccccc2)C(=O)C1=O` [Piperacillin], the MIC with PAO1 (setting [2]) is 2 µg/mL (≈ 3.86 µM).

In the case of `CC[C@H](C)CCCCC(=O)N[C@@H](CCN)C(=O)N[C@H](C(=O)N[C@@H](CCN)C(=O)N[C@H]1CCNC(=O)[C@H]([C@@H](C)O)NC(=O)[C@H](CCN)NC(=O)[C@H](CCN)NC(=O)[C@H](CC(C)C)NC(=O)[C@@H](CC(C)C)NC(=O)[C@H](CCN)NC1=O)[C@@H](C)O` [Colistin] (X1-[Dab]T[Dab][Dab][Dab][dL]L[Dab][Dab]T; lactam 4-C (inferred); N-terminus assumed), in experiment [1], the “increase in the MIC value after induction” value is “thirty-twofold” and the “MIC values after co-induction with CRAMP-34” value is given as “significantly reduced”. The compound further had an MIC in the experiment on PAO1 of 0.25 µg/mL (≈ 0.214 µM).

For `C[C@@H](O)[C@H]1C(=O)N2C(C(=O)O)=C(S[C@@H]3CN[C@H](C(=O)N(C)C)C3)[C@H](C)[C@H]12` [Meropenem], in the experiment with PAO1 (setting [2]), the MIC amounted to 0.5 µg/mL (≈ 1.3 µM).

On to `C[C@@H](O)[C@H]1C(=O)N2C(C(=O)O)=C(SCCN=CN)C[C@H]12` [Imipenem], for which the MIC with PAO1 (setting [2]) stood at 2 µg/mL (≈ 6.68 µM).

As for `CCN1CCN(C(=O)N[C@@H](C(=O)N[C@@H]2C(=O)N3C(C(=O)O)=C(CSc4nnnn4C)CS[C@H]23)c2ccc(O)cc2)C(=O)C1=O` [Cefoperazone], the MIC with PAO1 (setting [2]) amounted to 4 µg/mL (≈ 6.2 µM).

On to `CO/N=C(\C(=O)N[C@@H]1C(=O)N2C(C(=O)[O-])=C(C[n+]3cccc4c3CCCC4)CS[C@H]12)c1csc(N)n1.O=S(=O)(O)O` [Cefoquinol], for which, in the experiment with PAO1, the MIC amounted to 2 µg/mL.

Consider `O=C(O)CCC(=O)O` [succinate], for which, in the experiment on PAO1 preformed biofilms, the “effect of exogenous addition on pre-biofilms (biomass)” value is reported as “significant effects on eradicating pre-biofilms”. In the experiment on surface-attached biofilm, the “reduction in surface-attached biofilm biomass” value was roughly 80%.

`N[C@@H](CCC(=O)O)C(=O)O` [glutamate]: the “effect of exogenous addition on pre-biofilms (biomass)” value in the experiment on PAO1 preformed biofilms is listed as “significant effects on eradicating pre-biofilms”. In the experiment on surface-attached biofilm, the “reduction in surface-attached biofilm biomass” value was roughly 80%.
